Literature values as cited in patent US6533967B1, “Initiating system for solid polyester granule manufacture” (Orica Australia Pty Ltd, priority 1999, dated 2003).

System: rat
Details: inhalation of vapours, 4 h

In the case of CCN(CC)c1ccccc1 [N,N-diethylaniline], the LC50 rat is listed as 1920 mg/m^3/4 h.
